Activity and MIC data for ten molecules are collected here from ChEMBL document CHEMBL3351866, “Indole alkaloid glycosides from the aerial parts of Strobilanthes cusia” (2014).

SMILES strings stand for the structures. Values after ≈ are worked out from the molar mass of the structure shown. Active and inactive are the calls of the source. The calls are words filed in the database; no cut-off is given here.

The subject of this test is Staphylococcus aureus. Kind of test: Antibacterial activity against Staphylococcus aureus assessed as growth inhibition after 24 hrs by broth microdilution assay. It is filed as functional. On the technique in general: Broth dilution looks for growth in wells or tubes with falling amounts of substance.

`C[C@@H]1O[C@@H](O[C@@H]2[C@@H](O)[C@H](OCCc3ccc(O)c(O)c3)O[C@H](CO)[C@@H]2OC(=O)/C=C/c2ccc(O)c(O)c2)[C@H](O)[C@H](O)[C@H]1O`: the outcome was inactive.

For `COc1ccc(CCO[C@@H]2O[C@H](COC(=O)/C=C/c3ccc(O)c(OC)c3)[C@@H](O)[C@H](O[C@@H]3O[C@@H](C)[C@H](O)[C@@H](O)[C@H]3O)[C@H]2O)cc1O`, the result was inactive. Take `C[C@@H]1O[C@@H](O[C@@H]2[C@@H](O)[C@H](OCCc3ccc(O)c(O)c3)O[C@H](CO)[C@H]2OC(=O)/C=C/c2ccc(O)c(O)c2)[C@H](O)[C@H](O)[C@H]1O`: the outcome was inactive.

For `COc1ccc(CCO[C@@H]2O[C@H](CO)[C@@H](OC(=O)/C=C/c3ccc(O)c(O)c3)[C@H](O[C@@H]3O[C@@H](C)[C@H](O)[C@@H](O)[C@H]3O)[C@H]2O)cc1O`, the outcome was inactive. Same read-out and setting: with `COC(=O)c1ccccc1NC(=O)c1[nH]c2ccccc2c1O[C@@H]1O[C@H](CO)[C@@H](O)[C@H](O)[C@H]1O` the entry was “inactive”; with `C[C@@H]1O[C@@H](O[C@@H]2[C@@H](O)[C@H](OCCc3ccc(O)c4c3[C@@]3(Nc5ccccc5C3=O)[C@]3(Nc5ccccc5C3=O)O4)O[C@H](CO)[C@H]2OC(=O)/C=C/c2ccc(O)c(O)c2)[C@H](O)[C@H](O)[C@H]1O`, “inactive”. As to `O=C1/C(=C2/C(=O)N([C@@H]3O[C@H](CO)[C@@H](O)[C@H](O)[C@H]3O)c3ccccc32)Nc2ccccc21`, the MIC was determined as 62.5 µM (≈ 26.5 µg/mL). As for `COC(=O)/C=C/c1[nH]c2ccccc2c1O[C@@H]1O[C@H](CO)[C@@H](O)[C@H](O)[C@H]1O`, the result was inactive. As to `COc1ccc(CCO[C@@H]2O[C@H](CO)[C@@H](OC(=O)/C=C/c3ccc(O)c(OC)c3)[C@H](O[C@@H]3O[C@@H](C)[C@H](O)[C@@H](O)[C@H]3O)[C@H]2O)cc1O`, the result was inactive. Still for that read-out and setting: with `C[C@@H]1O[C@@H](O[C@@H]2[C@@H](O)[C@H](OCCc3ccc(O)c4c3[C@]3(Nc5ccccc5C3=O)[C@@]3(Nc5ccccc5C3=O)O4)O[C@H](CO)[C@H]2OC(=O)/C=C/c2ccc(O)c(O)c2)[C@H](O)[C@H](O)[C@H]1O` the entry was “inactive”.

The MIC is the lowest concentration that inhibits growth of the organism.
